Like-named read-outs stand apart in the source and are kept apart here.
Tests used:
[1] = tested on: BT20; assay: cells; details: Homo sapiens, BT-20, read-out: BT20 IC50
[2] = tested on: RS4;11; assay: cells; type: cell-based; details: Homo sapiens, RS4-11, read-out: RS4;11 IC50
[3] = tested on: ALL1; assay: cells; type: cell-based; details: Homo sapiens, read-out: ALL1 IC50
[4] = tested on: NALM-6; assay: cells; type: cell-based; details: Homo sapiens, NALM-6, read-out: NALM-6 IC50
[5] = tested on: NALM-6; assay: Anti-proliferative activity (colony counts), NALM-6; type: cell-based, human
Source text: (§1) The dose-responsive anti-proliferative activity of various organic arsenic acid substituted compounds against leukemic cell lines (NALM-6 and MOLT-3) is shown below in Table 3. FIGS. 3A-3F show dose response curves in ALL1, NALM-6, and MOLT-3 cells.

[6] = tested on: MOLT-3; assay: cells; type: cell-based; details: Homo sapiens, MOLT-3, read-out: MOLT-3 IC50
[7] = tested on: primary leukemic cells; assay: MTT cytotoxicity against primary leukemic cells; details: cells from 5 leukemia patients, FIGS. 4A-4E
[8] = tested on: MOLT-3; assay: Anti-proliferative activity (colony counts), MOLT-3; type: cell-based, human
Source text: as §1

[9] = tested on: BT20
[10] = tested on: leukemic cell lines (NALM-6, MOLT-3, ALL1, RS4;11); assay: cells; details: Homo sapiens, read-out: IC50 values in leukemic cell lines
[11] = tested on: NALM-6 cells; assay: MTT cytotoxicity over 1-4 days versus arsenic trioxide, NALM-6; details: MTT, doses 0.07 μM to 5 μM
[12] = NALM-6, concentration 0.1 (mM as printed)
[13] = NALM-6, concentration 1 (mM as printed)
[14] = NALM-6, concentration 10 (mM as printed)
[15] = NALM-6, concentration 100 (mM as printed)
[16] = MOLT-3, concentration 0.1 (mM as printed)
[17] = MOLT-3, concentration 1 (mM as printed)
[18] = MOLT-3, concentration 10 (mM as printed)
[19] = MOLT-3, concentration 100 (mM as printed)

| Compound | melting point [°C] | IC50 [1] [µM] | IC50 [2] [µM] | IC50 [3] [µM] | IC50 [4] [µM] | % Inhibition [5, 12] [%] | Mean No. of Colonies/10^6 Cells [5, 12] | % Inhibition [5, 13] [%] | Mean No. of Colonies/10^6 Cells [5, 13] | % Inhibition [5, 14] [%] | Mean No. of Colonies/10^6 Cells [5, 14] [Colonies/10^6 Cells] | % Inhibition [5, 15] [%] | Mean No. of Colonies/10^6 Cells [5, 15] [Colonies/10^6 Cells] | IC50 [6] [µM] | cytotoxic activity against primary leukemic cells (in words) [7] | Mean No. of Colonies/10^6 Cells [8, 16] | % Inhibition [8, 17] [%] | Mean No. of Colonies/10^6 Cells [8, 17] | % Inhibition [8, 18] [%] | Mean No. of Colonies/10^6 Cells [8, 18] [Colonies/10^6 Cells] | further results |
| --- | --- | --- | --- | --- | --- | --- | --- | --- | --- | --- | --- | --- | --- | --- | --- | --- | --- | --- | --- | --- | --- |
| COc1cc2ncnc(Nc3ccc([As](=O)(O)O)cc3)c2cc1OC | > 300 | – | – | – | – | – | – | – | – | – | – | – | – | – | – | – | – | – | – | – | – |
| COc1cc2ncnc(Nc3ccc(N=Nc4ccc([As](=O)(O)O)cc4)cc3)c2cc1OC [WHI-P273, 4-[(6′,7′-Dimethoxyquinazoline-4′)-aminophenylazo]phenyl arsenic acid] | – | > 250 | 7.7 | 8.2 | 7.3 | 13.7 | 3638(3260, 4016) Colonies/10^6 Cells | 98.5 | 61(24, 96) Colonies/10^6 Cells | 100 | 0 | 100 | 0 | 12.1 | susceptible to the cytotoxic effects | 1230(968, 1492) Colonies/10^6 Cells | 75 | 264(216, 312) Colonies/10^6 Cells | 100 | 0 | % Inhibition [8, 19]: 100%; Mean No. of Colonies/10^6 Cells [8, 19]: 0 Colonies/10^6 Cells |
| CSc1nccc(Nc2ccc(N=Nc3ccc([As](=O)(O)O)cc3)cc2)n1 [WHI-P370, 2-Methylthio-4-[(4′-aminophenylazo)-phenylarsenic acid]pyrimidine] | 240 to 242 | 67.8 | 4.8 | 1.9 | 5.98 | 30.9 | 2194(2860, 2968) Colonies/10^6 Cells | 100 | 0 Colonies/10^6 Cells | 100 | 0 | 100 | 0 | 2.9 | susceptible to the cytotoxic effects | 992(896, 1088) Colonies/10^6 Cells | 100 | 0 Colonies/10^6 Cells | 100 | 0 | cytotoxic against the breast cancer cell line BT20 (in words) [9]: cytotoxic; % Inhibition [8, 16]: 6.1%; % Inhibition [8, 19]: 100%; Mean No. of Colonies/10^6 Cells [8, 19]: 0 Colonies/10^6 Cells |
| O=[As](O)(O)c1ccc(N=Nc2ccc(Nc3ncnc4[nH]cnc34)cc2)cc1 [WHI-P371, 6-[(4′-Aminophenylazo)-phenylarsenic acid]-purine] | > 300 | > 250 | 16.2 | 24.5 | 15.2 | 8.8 | 3846(3696, 3996) Colonies/10^6 Cells | 76.4 | 994(616, 1372) Colonies/10^6 Cells | 100 | 0 | 100 | 0 | 21.6 | susceptible to the cytotoxic effects | 1098(1004, 1192) Colonies/10^6 Cells | 27.9 | 761(678, 844) Colonies/10^6 Cells | 100 | 0 | % Inhibition [8, 19]: 100%; Mean No. of Colonies/10^6 Cells [8, 19]: 0 Colonies/10^6 Cells |
| Nc1nc(N)nc(Nc2ccc(N=Nc3ccc([As](=O)(O)O)cc3)cc2)n1 [WHI-P374, 2,6-Diamino-4[(4′-aminophenylazo)-phenylarsenic acid]-1,3,5-triazine] | > 300 | 13.9 | 53.6 | 55.8 | 50.1 | – | – | – | – | – | – | – | – | 104 | – | – | – | – | – | – | cytotoxic against the breast cancer cell line BT20 (in words) [9]: cytotoxic |
| COc1cc2ncnc(Nc3ccccc3[As](=O)(O)O)c2cc1OC [WHI-P378, 4-(2′-phenylarsenic acid)amino-6,7-dimethoxyquinazoline] | > 300 | > 250 | 115 | 128 | 46.6 | – | – | – | – | – | – | – | – | 67.3 | – | – | – | – | – | – | – |
| CSc1nccc(Nc2ccc([As](=O)(O)O)cc2)n1 [WHI-P380, 2-Methylthio-4-(4′-phenylarsenic acid)-aminopyrimidine] | > 300 | 239 | 10.2 | 6.2 | 1.7 | 66.9 | 400(116, 684) Colonies/10^6 Cells | 99.8 | 2(3, 1) Colonies/10^6 Cells | 100 | 0 | 100 | 0 | 14.2 | susceptible to the cytotoxic effects | 678(624, 732) Colonies/10^6 Cells | 69.7 | 436(272, 600) Colonies/10^6 Cells | 100 | 0 | IC50 [10]: 1.7 to 14.2 µM; % Inhibition [8, 16]: 52.8%; % Inhibition [8, 19]: 100%; Mean No. of Colonies/10^6 Cells [8, 19]: 0 Colonies/10^6 Cells |
| Arsenic trioxide [reference compound] | – | – | – | – | – | – | – | – | – | – | – | – | – | – | – | – | – | – | – | – | IC50 ([11]; read-out: Cytotoxicity against NALM-6 cells IC50, Day 1, 1 day of treatment): 3.8 µM; IC50 ([11]; read-out: Cytotoxicity against NALM-6 cells IC50, Day 2, 2 days of treatment): 3.2 µM; IC50 ([11]; read-out: Cytotoxicity against NALM-6 cells IC50, Day 3, 3 days of treatment): 2 µM; IC50 ([11]; read-out: Cytotoxicity against NALM-6 cells IC50, Day 4, 4 days of treatment): 1.2 µM |

Source: patent US6482815B1 (priority 1999, dated 2002)
